# Laboratory results from PubChem BioAssay AID1259407 (Chemical Carcinogenesis Research Information System (CCRIS), 2018).
# Active and inactive are the calls of the source. How the calls were made is not given here.
# System: CCRIS mutagenicity, Ames/micronucleus/aberration tests
# Assay: CCRIS mutagenicity studies
# [1] = Test System: AMES SALMONELLA TYPHIMURIUM, Strain/Indicator: TA97, Metabolic Activation: NONE, Method: PREINCUBATION
# [2] = Test System: AMES SALMONELLA TYPHIMURIUM, Strain/Indicator: TA98, Metabolic Activation: NONE, Method: PREINCUBATION
# [3] = Test System: AMES SALMONELLA TYPHIMURIUM, Strain/Indicator: TA100, Metabolic Activation: HAMSTER, LIVER, S-9, AROCLOR 1254 (10%), Method: PREINCUBATION
# [4] = Test System: AMES SALMONELLA TYPHIMURIUM, Strain/Indicator: TA100, Metabolic Activation: NONE, Method: PREINCUBATION
# [5] = Test System: AMES SALMONELLA TYPHIMURIUM, Strain/Indicator: TA100, Metabolic Activation: RAT, LIVER, S-9, AROCLOR 1254 (10%), Method: PREINCUBATION
# [6] = Test System: AMES SALMONELLA TYPHIMURIUM, Strain/Indicator: TA1535, Metabolic Activation: NONE, Method: PREINCUBATION
# [7] = Test System: AMES SALMONELLA TYPHIMURIUM, Strain/Indicator: TA98, Metabolic Activation: NONE
smiles,measurement,setting,value
S=C=Nc1cccc2ccccc12,mutagenic call,"Test System: AMES SALMONELLA TYPHIMURIUM, Strain/Indicator: TA97, Metabolic Activation: HAMSTER, LIVER, S-9, AROCLOR 1254 (30%), Method: PREINCUBATION",active; positive
same,mutagenic call,[1],inactive; negative
same,mutagenic call,"Test System: AMES SALMONELLA TYPHIMURIUM, Strain/Indicator: TA97, Metabolic Activation: RAT, LIVER, S-9, AROCLOR 1254 (10 OR 30%), Method: PREINCUBATION",inactive; negative
same,mutagenic call,"Test System: AMES SALMONELLA TYPHIMURIUM, Strain/Indicator: TA98, Metabolic Activation: HAMSTER, LIVER, S-9, AROCLOR 1254 (30%), Method: PREINCUBATION",inactive; negative
same,mutagenic call,[2],inactive; negative
same,mutagenic call,"Test System: AMES SALMONELLA TYPHIMURIUM, Strain/Indicator: TA98, Metabolic Activation: RAT, LIVER, S-9, AROCLOR 1254 (1O OR 30%), Method: PREINCUBATION",inactive; negative
same,mutagenic call,[3],inactive; negative
same,mutagenic call,"Test System: AMES SALMONELLA TYPHIMURIUM, Strain/Indicator: TA100, Metabolic Activation: HAMSTER, LIVER, S-9, AROCLOR 1254 (30%), Method: PREINCUBATION",active; positive
same,mutagenic call,[4],inactive; negative
same,mutagenic call,[5],inactive; negative
same,mutagenic call,"Test System: AMES SALMONELLA TYPHIMURIUM, Strain/Indicator: TA100, Metabolic Activation: RAT, LIVER, S-9, AROCLOR 1254 (30%), Method: PREINCUBATION",inactive; negative
same,mutagenic call,"Test System: AMES SALMONELLA TYPHIMURIUM, Strain/Indicator: TA1535, Metabolic Activation: HAMSTER, LIVER, S-9, AROCLOR 1254 (10 OR 30%), Method: PREINCUBATION",inactive; negative
same,mutagenic call,[6],inactive; negative
same,mutagenic call,"Test System: AMES SALMONELLA TYPHIMURIUM, Strain/Indicator: TA1535, Metabolic Activation: RAT, LIVER, S-9, AROCLOR 1254 (10 OR 30%), Method: PREINCUBATION",inactive; negative
same,mutagenic call,"Test System: AMES SALMONELLA TYPHIMURIUM, Strain/Indicator: TA1537, Metabolic Activation: HAMSTER, LIVER, S-9, AROCLOR 1254 (30%), Method: PREINCUBATION",inactive; negative
same,mutagenic call,"Test System: E. COLI, Strain/Indicator: WP2 UVRA, Metabolic Activation: HAMSTER, LIVER, S-9, AROCLOR 1254, Method: STANDARD PLATE",inactive; negative
same,mutagenic call,"Test System: E. COLI, Strain/Indicator: WP2 UVRA, Metabolic Activation: HAMSTER, LIVER, S-9, Method: STANDARD PLATE",inactive; negative
same,mutagenic call,"Test System: E. COLI, Strain/Indicator: WP2 UVRA, Metabolic Activation: MOUSE, LIVER, S-9, AROCLOR 1254, Method: STANDARD PLATE",inactive; negative
same,mutagenic call,"Test System: E. COLI, Strain/Indicator: WP2 UVRA, Metabolic Activation: MOUSE, LIVER, S-9, Method: STANDARD PLATE",inactive; negative
same,mutagenic call,"Test System: E. COLI, Strain/Indicator: WP2 UVRA, Metabolic Activation: NONE, Method: STANDARD PLATE",inactive; negative
same,mutagenic call,"Test System: E. COLI, Strain/Indicator: WP2 UVRA, Metabolic Activation: RAT, LIVER, S-9, AROCLOR 1254, Method: STANDARD PLATE",inactive; negative
same,mutagenic call,"Test System: E. COLI, Strain/Indicator: WP2 UVRA, Metabolic Activation: RAT, LIVER, S-9, Method: STANDARD PLATE",inactive; negative
[N-]=[N+]=NC[C@H](CO)Cc1ccccc1,mutagenic call,"Test System: AMES SALMONELLA TYPHIMURIUM, Strain/Indicator: TA100, Metabolic Activation: RAT, LIVER, S-9, PCB, Method: PREINCUBATION",active; positive
Oc1cc(O)cc(O)c1,mutagenic call,[1],inactive; negative
same,mutagenic call,"Test System: AMES SALMONELLA TYPHIMURIUM, Strain/Indicator: TA97, Metabolic Activation: RAT, LIVER, S-9, PHENOBARBITAL, Method: PREINCUBATION",inactive; negative
same,mutagenic call,[7],inactive; negative
same,mutagenic call,[2],inactive; negative
same,mutagenic call,"Test System: AMES SALMONELLA TYPHIMURIUM, Strain/Indicator: TA98, Metabolic Activation: RAT, LIVER, S-9, PHENOBARBITAL, Method: PREINCUBATION",inactive; negative
same,mutagenic call,"Test System: AMES SALMONELLA TYPHIMURIUM, Strain/Indicator: TA98, Metabolic Activation: S-9",inactive; negative
same,mutagenic call,[4],inactive; negative
same,mutagenic call,"Test System: AMES SALMONELLA TYPHIMURIUM, Strain/Indicator: TA100, Metabolic Activation: RAT, LIVER, S-9, PHENOBARBITAL, Method: PREINCUBATION",inactive; negative
Cc1cnc2cc(C)c3c(nc(N)n3C)c2n1,mutagenic call,"Test System: AMES SALMONELLA TYPHIMURIUM, Strain/Indicator: TA98, Metabolic Activation: RAT, LIVER, S-9, AROCLOR 1254, Method: STANDARD PLATE",active; positive
Cc1ccc(S(=O)(=O)OCc2ccc([N+](=O)[O-])cc2)cc1,mutagenic call,"Test System: AMES SALMONELLA TYPHIMURIUM, Strain/Indicator: TA100, Metabolic Activation: NONE, Method: STANDARD PLATE",active; positive
COc1ccc(/C(=C/C(=O)N2CCOCC2)c2ccc(F)cc2)cc1OC,mutagenic call,"End Point: IN VITRO CHROMOSOMAL ABERRATIONS, Test System: CHINESE HAMSTER LUNG (CHL) CELLS, Metabolic Activation: NONE",inactive; negative
same,mutagenic call,"End Point: IN VITRO CHROMOSOMAL ABERRATIONS, Test System: CHINESE HAMSTER LUNG (CHL) CELLS, Metabolic Activation: S-9",active; positive (structural changes)
O=C(CCl)c1ccccc1,mutagenic call,"Test System: AMES SALMONELLA TYPHIMURIUM, Strain/Indicator: TA98, Metabolic Activation: HAMSTER, LIVER, S-9, AROCLOR 1254 (10%), Method: PREINCUBATION",inactive; negative
same,mutagenic call,[7],inactive; negative
same,mutagenic call,[2],inactive; negative
same,mutagenic call,"Test System: AMES SALMONELLA TYPHIMURIUM, Strain/Indicator: TA98, Metabolic Activation: RAT, LIVER, S-9, AROCLOR 1254 (10%), Method: PREINCUBATION",inactive; negative
same,mutagenic call,"Test System: AMES SALMONELLA TYPHIMURIUM, Strain/Indicator: TA98, Metabolic Activation: RAT, LIVER, S-9, PHENOBARBITONE AND BETA-NAPHTHOFLAVONE",inactive; negative
same,mutagenic call,[3],inactive; negative
same,mutagenic call,"Test System: AMES SALMONELLA TYPHIMURIUM, Strain/Indicator: TA100, Metabolic Activation: NONE",inactive; negative
same,mutagenic call,[4],inactive; negative
same,mutagenic call,[5],inactive; negative
same,mutagenic call,"Test System: AMES SALMONELLA TYPHIMURIUM, Strain/Indicator: TA100, Metabolic Activation: RAT, LIVER, S-9, PHENOBARBITONE AND BETA-NAPHTHOFLAVONE",inactive; negative
same,mutagenic call,"Test System: AMES SALMONELLA TYPHIMURIUM, Strain/Indicator: TA1535, Metabolic Activation: HAMSTER, LIVER, S-9, AROCLOR 1254 (10%), Method: PREINCUBATION",inactive; negative
same,mutagenic call,[6],inactive; negative
same,mutagenic call,"Test System: AMES SALMONELLA TYPHIMURIUM, Strain/Indicator: TA1535, Metabolic Activation: RAT, LIVER, S-9, AROCLOR 1254 (10%), Method: PREINCUBATION",inactive; negative
same,mutagenic call,"Test System: AMES SALMONELLA TYPHIMURIUM, Strain/Indicator: TA1537, Metabolic Activation: HAMSTER, LIVER, S-9, AROCLOR 1254 (10%), Method: PREINCUBATION",inactive; negative
same,mutagenic call,"Test System: AMES SALMONELLA TYPHIMURIUM, Strain/Indicator: TA1537, Metabolic Activation: NONE, Method: PREINCUBATION",inactive; negative
same,mutagenic call,"Test System: AMES SALMONELLA TYPHIMURIUM, Strain/Indicator: TA1537, Metabolic Activation: RAT, LIVER, S-9, AROCLOR 1254 (10%), Method: PREINCUBATION",inactive; negative
same,mutagenic call,"Test System: AMES SALMONELLA TYPHIMURIUM, Strain/Indicator: TA1538, Metabolic Activation: NONE",inactive; negative
same,mutagenic call,"Test System: AMES SALMONELLA TYPHIMURIUM, Strain/Indicator: TA1538, Metabolic Activation: RAT, LIVER, S-9, PHENOBARBITONE AND BETA-NAPHTHOFLAVONE",inactive; negative
